Assay results reported in patent US11925669B2, “Chinese herbal medicine composition having a function of reducing uric acid” (Infinitus (China) Company Ltd., priority 2013, dated 2024).
Marks after values point to notes of the source that are not given here.

Columns and labels:
[1] = system: rat model of hyperuricemia; test: Reducing uric acid in the rat model of hyperuricemia (Oteracil potassium), 30 d intragastric administration; format: in vivo, SD Rat; conditions: hyperuricemia model rats, X ± S
[2] = system: rat model of hyperuricemia; test: as above; format: in vivo, SD Rat; conditions: for UA Reduction: day 30, calculated in comparison with Model control group
From the text: Examine the effect of the Chinese herbal composition of the present invention for reducing uric acid in the rat model of hyperuricemia. Animals were assigned randomly into: Blank control group, Sample control group, Model control group, Test group, and Positive control group. Each group consisted of 10 animals. […] They were randomly assigned into 5 groups, each group consisting of 10 animals, the body weight distribution of each group of rats is similar. […] Blank control group was administrated with 17 ml/kg of distilled water intragastrically every afternoon, Sample control group was administrated with 17 ml/kg of test sample intragastrically every afternoon, Model control group was administrated with distilled water intragastrically in the afternoon, Positive control group was administrated with allopurinol intragastrically in the afternoon, and Test group was administrated with 17 ml/kg of test sample intragastrically in the afternoon. Additionally, for Model control group, Positive control group and Test group, each group was administrated with Oteracil potassium intragastrically every morning. The administration was conducted daily for 30 days. Prior to experiments, the rats were fastened for 12 h (but water was provided) and then about 1 ml of blood were taken from orbital veniplex with glass capillary tube. Sera were separated for measuring the pre-testing level of uric acid. On day 30, blood were taken in the same manner and sera were separated for measuring the serum levels of uric acid, creatinine, and urea nitrogen. Modeling principle: Rats were intragastrically administrated with Oteracil potassium, a chemical inhibitor of uricase, to inhibit the activity of uricase in the body of rats, rendering uric acid in the body of rats unable to breakdown, causing the accumulation of uric acid produced in the serum, so as to produce a rat model of hyperuricemia. Model control group: 17 ml/kg*d of distilled water was administrated intragastrically, once daily for 30 days; Test sample prevention group: 17 ml/kg*d of test sample was administrated intragastrically, once daily for 30 days; Positive control group: 17 ml/kg*d of positive control allopurinolis administrated intragastrically, once daily for 30 days. Observation of Body weight: The growing condition of animals were observed by weighing prior to administration and on Day 30 of administration. Blood were taken prior to administration and on Day 30 of administration to measure uric acid, creatinine, urea nitrogen, to calculate the changing rate of uric acid level in serum. The changing rate of uric acid in serum=(uric acid value in serum after experiment-uric acid value in serum prior to experiment)/uric acid value in serum prior to […]100% ANOVA (analysis of variance) was used. Firstly, homogeneous variance test was carried out, and F values were calculated.

[3] = hyperuricemia model rats, intragastric once daily, day 30, X ± S

**Q.** For `Oc1ncnc2[nH]ncc12` [allopurinol], which 10 d weight ([1]; body weight after 10 days) is on record?
**A.** Its 10 d weight is 185.7 ± 15.9 g.

**Q.** What about the 20 d weight ([1]; body weight after 20 days) of the same compound?
**A.** The 20 d weight was 224.2 ± 21.8 g.

**Q.** What about the 30 d weight ([2]; hyperuricemia model rats, body weight after 30 days, X ± S) of the same compound?
**A.** Its 30 d weight is 254.4 ± 23.1 g.

**Q.** What about the “UA Reduction” value ([2]; hyperuricemia model rats) of the same compound?
**A.** The value was 53.4%.

**Q.** What about the “UA Reduction” value ([2]; hyperuricemia model rats, listed as Positive control) of the same compound?
**A.** Its value is “↓53.4%”.

**Q.** What about the BUN level in the sera of rats upon 30 d administration [2, 3] of the same compound?
**A.** Its BUN level in the sera of rats upon 30 d administration is 5.53 ± 0.79 mM.

**Q.** What about the “UA level in the sera of rats upon 30 d administration” value [2, 3] of the same compound?
**A.** Its value is 63.20 ± 17.19** μmol/L.

**Q.** And the “Blood/serum UA level change in words” value ([2]; in comparison with Model control group, 30 d oral administration)?
**A.** Its value is “significant reduction”.

**Q.** And the “General status observation (appearance, activities, excrement characters)” value ([2]; in comparison with Model control group, observed daily)?
**A.** Its value is “no significant difference”.
